These results are taken from US8383139B2 (Bayer CropScience AG, priority 2008, dated 2013).

The nature of series [1]: log P by HPLC on reversed-phase columns (C 18), EEC Directive 79/831 Annex V.A8. As to conditions: reversed-phase C18 HPLC column. Format: physicochemical.
The next series concerns Sphaerotheca fuliginea. Nature of the series: Sphaerotheca test (cucumber)/protective. Format: in vivo. As to conditions: Podosphaera fuliginea, 168 h, 500 ppm active substance, protective, evaluation 7 days after inoculation, read-out: degree of effectiveness. An outline of the steps:
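Young cucumber plants sprayed at the stated rate with active substance in DMF/alkylaryl polyglycol ether emulsifier diluted in water, then inoculated with Sphaerotheca fuliginea spores one day later. Kept in greenhouse at 70% relative humidity, 23° C.; scored 7 days post-inoculation as % efficacy (0% = untreated control, 100% = no infestation).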

In the next series the test system is Uromyces appendiculatus. Nature of the series: Uromyces test (beans)/protective. As to conditions: 240 h, 100 ppm active substance, protective, evaluation 10 days after inoculation, read-out: degree of effectiveness. Format: in vivo. An outline of the steps:
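Young bean plants were sprayed with compound (acetone/dimethylacetamide/emulsifier concentrate diluted in water), dried, then inoculated with U. appendiculatus spores. They were held 1 day at ~20 °C, 100% RH, then kept in a greenhouse at ~21 °C, ~90% RH. Efficacy was scored at 10 days post-inoculation (0% = control, 100% = no infestation).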

A further series has as its system Phakopsora pachyrhizi. Nature of the series: Phakopsora test (soybean)/protective. Format: in vivo. As to conditions: 264 h, 500 ppm active substance, protective, evaluation 11 days after inoculation, read-out: degree of effectiveness. On the procedure:
• Solvent: 28.5 parts by weight of acetone • Emulsifier: 1.5 parts by weight of polyoxyethylene alkylphenyl ether (polyoxy-ethylene (16) tristearylphenyl ether)
To prepare a suitable active substance composition, 1 part by weight of active substance is mixed with the given amounts of solvent and emulsifier and the concentrate is diluted to the desired concentration using water.
For the testing of protective effectiveness, young plants are sprayed with the active substance composition at the application rate given. One day after the spraying, the plants are sprayed with an aqueous suspension of spores of Phakopsora pachyrhizi. The plants remain in a greenhouse at 20° C. and 80% relative humidity.
Evaluation is carried out 11 days after the inoculation. In this connection, 0% means a degree of effectiveness corresponding to that of the control, while a degree of effectiveness of 100% means that no infestation is observed.

In the next series the test system is Septoria tritici. Nature of the series: Septoria tritici test (wheat)/protective. The series is classed as in vivo. Conditions: Zymoseptoria tritici, 504 h, 500 ppm active substance, protective, evaluation 21 days after inoculation, read-out: degree of effectiveness. An outline of the steps: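 Young wheat plants sprayed with compound in dimethylacetamide/emulsifier-water, then inoculated with S. tritici spores once dry. Kept 48 h at 20 °C/100% RH, 60 h at 15 °C/100% RH, then greenhouse ~15 °C/80% RH. Scored 21 days post-inoculation as % efficacy versus untreated control.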

The next series concerns Alternaria solani. Nature of the series: Alternaria test (tomato)/protective. Format: in vivo. As to conditions: 72 h, 100 ppm active substance, protective, evaluation 3 days after inoculation, read-out: degree of effectiveness.
Another series has as its system Puccinia triticina. Nature of the series: Puccinia triticina test (wheat)/protective. Format: in vivo. As to conditions: 192 h, 500 ppm active substance, protective, evaluation 8 days after inoculation, read-out: degree of effectiveness. An outline of the steps:
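Protective test: young wheat plants sprayed with compound (in N,N-dimethylacetamide/emulsifier, diluted in water) at the stated rate, dried, then inoculated with Puccinia triticina spores; 48 h at 20 °C, 100% RH, then greenhouse ~20 °C, ~80% RH. Efficacy scored 8 days post-inoculation, 0% = untreated control, 100% = no infestation.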

[2] abbreviates: pH 2.3, [a] HPLC, acid region pH 2.3, 0.1% aqueous phosphoric acid and acetonitrile, read-out: log p.
Setting [3] is: pH 2.3, pH 2.3, given in synthesis examples, read-out: log P (pH2.3).

Like-named read-outs stand apart in the source and are kept apart here.

Take `CCN(C)C=Nc1cc(C)c(Oc2nc(C(C)c3ccc(Cl)cc3)ns2)cc1C` (stereo not shown) [Example 17, N′-[4-({3-[1-(4-chlorophenyl)ethyl]-1,2,4-thiadiazol-5-yl}oxy)-2,5-dimethylphenyl]-N-ethyl-N-methylimidoformamide]: in series [1] (setting [2]), the chromatographic logP is 2.34. The pest or weed control at 500 ppm was not below 70% in the series with Sphaerotheca fuliginea, not below 80% in the series with Phakopsora pachyrhizi, not below 70% in the series with Septoria tritici and not below 70% in the series on Puccinia triticina. The pest or weed control at 100 ppm with Uromyces appendiculatus and with Alternaria solani was not below 70% each time.

`CCN(C)C=Nc1cc(C)c(Oc2nc(C3(c4ccc(Cl)cc4)CC3)ns2)cc1C` [Example 37, N′-[4-({3-[1-(4-chlorophenyl)cyclopropyl]-1,2,4-thiadiazol-5-yl}oxy)-2,5-dimethylphenyl]-N-ethyl-N-methylimidoformamide]: the figures for the chromatographic logP in series [1] (setting [2]) and in series [1] (setting [3]) were 2.21 and 2.28, respectively. Also, the pest or weed control at 500 ppm with Sphaerotheca fuliginea was not below 70%; in the series with Phakopsora pachyrhizi, not below 80%; with Septoria tritici it was not below 70%; in the series with Puccinia triticina, not below 70%. Besides, the pest or weed control at 100 ppm with Uromyces appendiculatus and in the series with Alternaria solani was not below 70% each time.

With `CCN(C)C=Nc1cc(C)c(Oc2nc(Cc3cccc(Cl)c3)ns2)cc1C` [Example 35, N′-(4-{[3-(3-chlorobenzyl)-1,2,4-thiadiazol-5-yl]oxy}-2,5-dimethylphenyl)-N-ethyl-N-methylimidoformamide], the chromatographic logP in series [1] (setting [2]) and in series [1] (setting [3]) was 2.31 throughout. Besides, the pest or weed control at 500 ppm was not below 70% with Sphaerotheca fuliginea, not below 80% in the series with Phakopsora pachyrhizi, not below 70% in the series on Septoria tritici and not below 70% in the series on Puccinia triticina. For the same compound, the pest or weed control at 100 ppm with Uromyces appendiculatus and with Alternaria solani was not below 70% in each case.

Regarding `Cc1cc(Oc2nc(Cc3ccc(Cl)cc3)ns2)c(C)cc1N=CN1CCCCC1` [Example 2, 4-{[3-(4-chlorobenzyl)-1,2,4-thiadiazol-5-yl]oxy}-2,5-dimethyl-N-(piperidin-1-ylmethylidene)aniline], the chromatographic logP in series [1] (setting [2]) worked out at 2.09. The pest or weed control at 500 ppm in the series with Sphaerotheca fuliginea is not below 70%; in the series on Phakopsora pachyrhizi, not below 80%; in the series on Septoria tritici, not below 70%; in the series with Puccinia triticina, not below 70%. Further, the pest or weed control at 100 ppm with Uromyces appendiculatus and in the series with Alternaria solani was not below 70% each time.

For `CCN(C)C=Nc1cc(C)c(Oc2nc(Cc3ccc(C)cc3[N+](=O)[O-])ns2)cc1C` [Example 24, N′-(2,5-dimethyl-4-{[3-(4-methyl-2-nitrobenzyl)-1,2,4-thiadiazol-5-yl]oxy}phenyl)-N-ethyl-N-methylimidoformamide], the chromatographic logP in series [1] (setting [2]) was found to be 1.89. For the same compound, the pest or weed control at 500 ppm with Sphaerotheca fuliginea was not below 70%; in the series on Phakopsora pachyrhizi, not below 80%; in the series with Septoria tritici, not below 70%; in the series on Puccinia triticina, not below 70%. The pest or weed control at 100 ppm with Uromyces appendiculatus and in the series with Alternaria solani was not below 70% in each case.

In the case of `CCN(C)C=Nc1cc(C)c(Oc2nc(Cc3ccc(Cl)cc3Cl)ns2)cc1C` [Example 11, N′-(4-{[3-(2,4-dichlorobenzyl)-1,2,4-thiadiazol-5-yl]oxy}-2,5-dimethylphenyl)-N-ethyl-N-methylimidoformamide], in series [1] (setting [2]), the chromatographic logP amounted to 2.19. Further, the pest or weed control at 500 ppm in the series on Sphaerotheca fuliginea was not below 70%; with Phakopsora pachyrhizi, not below 80%; with Septoria tritici, not below 70%; in the series with Puccinia triticina it was not below 70%. Besides, the pest or weed control at 100 ppm in the series on Uromyces appendiculatus and with Alternaria solani was not below 70% each time.

With `CCN(C)C=Nc1cc(C)c(Oc2nc(Cc3ccc(Cl)cc3)ns2)cc1C` [Example 1, N′-(4-{[3-(4-chlorobenzyl)-1,2,4-thiadiazol-5-yl]oxy}-2,5-dimethylphenyl)-N-ethyl-N-methylimidoformamide], the pest or weed control at 500 ppm with Sphaerotheca fuliginea is not below 70%; in the series on Phakopsora pachyrhizi, not below 80%; with Septoria tritici, not below 70%; in the series with Puccinia triticina it was not below 70%. In addition, the pest or weed control at 100 ppm in the series with Uromyces appendiculatus and in the series with Alternaria solani was not below 70% each time.

`CCN(C)C=Nc1cc(C)c(Oc2nc(Cc3ccccc3OC)ns2)cc1C` [Example 49, N-ethyl-N′-(4-{[3-(2-methoxybenzyl)-1,2,4-thiadiazol-5-yl]oxy}-2,5-dimethylphenyl)-N-methylimidoformamide]: the chromatographic logP in series [1] (setting [2]) stood at 1.83. Besides, the pest or weed control at 500 ppm is not below 70% in the series on Sphaerotheca fuliginea, not below 80% in the series with Phakopsora pachyrhizi, not below 70% in the series on Septoria tritici and not below 70% with Puccinia triticina. Also, the pest or weed control at 100 ppm in the series with Uromyces appendiculatus and in the series on Alternaria solani was not below 70% in each case.

Take `CCN(C)C=Nc1cc(C)c(Oc2nc(Cc3ccc(F)cc3F)ns2)cc1C` [Example 52, N′-(4-{[3-(2,4-difluorobenzyl)-1,2,4-thiadiazol-5-yl]oxy}-2,5-dimethylphenyl)-N-ethyl-N-methylimidoformamide]: in series [1] (setting [2]), the chromatographic logP is 1.94. Moreover, the pest or weed control at 500 ppm in the series with Sphaerotheca fuliginea was not below 70%; in the series on Phakopsora pachyrhizi it was not below 80%; in the series on Septoria tritici, not below 70%; in the series with Puccinia triticina, not below 70%. Also, the pest or weed control at 100 ppm in the series with Uromyces appendiculatus and with Alternaria solani was not below 70% each time.

Take `CCN(C)C=Nc1cc(C)c(Oc2nc(Cc3ccc(Br)cc3)ns2)cc1C` [Example 31, N′-(4-{[3-(4-bromobenzyl)-1,2,4-thiadiazol-5-yl]oxy}-2,5-dimethylphenyl)-N-ethyl-N-methylimidoformamide]: the chromatographic logP in series [1] (setting [2]) was 2.07. Also, the pest or weed control at 500 ppm was not below 70% in the series with Sphaerotheca fuliginea, not below 80% in the series with Phakopsora pachyrhizi, not below 70% in the series on Septoria tritici and not below 70% with Puccinia triticina. The pest or weed control at 100 ppm in the series with Uromyces appendiculatus and in the series on Alternaria solani was not below 70% each time.

Take `CCN(C)C=Nc1cc(Cl)c(Oc2nc(C3(c4ccc(Cl)cc4)CC3)ns2)cc1C` [Example 40, N′-[5-chloro-4-({3-[1-(4-chlorophenyl)cyclopropyl]-1,2,4-thiadiazol-5-yl}oxy)-2-methylphenyl]-N-ethyl-N-methylimidoformamide]: in series [1] (setting [2]), the chromatographic logP worked out at 2.55. In addition, the pest or weed control at 500 ppm was not below 70% in the series with Sphaerotheca fuliginea, not below 80% in the series with Phakopsora pachyrhizi, not below 70% with Septoria tritici and not below 70% in the series on Puccinia triticina. Besides, the pest or weed control at 100 ppm with Uromyces appendiculatus and with Alternaria solani was not below 70% each time.

In the case of `CCN(C)C=Nc1cc(C)c(Oc2nc(C(C)(C)c3ccc(Cl)cc3)ns2)cc1C` [Example 25, N′-[4-({3-[2-(4-chlorophenyl)propan-2-yl]-1,2,4-thiadiazol-5-yl}oxy)-2,5-dimethylphenyl]-N-ethyl-N-methylimidoformamide], in series [1] (setting [2]), the chromatographic logP was 2.55. Also, the pest or weed control at 500 ppm with Sphaerotheca fuliginea was not below 70%; with Phakopsora pachyrhizi it was not below 80%; in the series with Septoria tritici, not below 70%; in the series with Puccinia triticina, not below 70%. Further, the pest or weed control at 100 ppm in the series with Uromyces appendiculatus and in the series with Alternaria solani was not below 70% throughout.
